Tests used:
[1] = target: T1, full-length human CSNK1A1 (Homo sapiens, UniProt P48729); test: CSNK1A1 Assay 2 (ADP-Glo, 1 μM ATP, substrate biotin-Ahx-KRRRAL-pS-VASLPGL); type: biochemical; settings: Table 3, read-out: CSNK1A1 Assay 2 IC50 [mol/l] (median)
T1 construct: N-terminal Glutathion-S-Transferase (GST) and full-length human CSNK1A1; purchased Life Technologies PV4174; host or cells: baculovirus infected insect cells
In short: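 GST-tagged full-length human CSNK1A1 from baculovirus-infected insect cells (about 0.0375 ng/μL), preincubated 15 min at 22 °C with compound in HEPES pH 7.5 buffer, with 1 μM ATP and biotin-Ahx-KRRRAL-pS-VASLPGL substrate. ADP formed read by ADP-Glo luminescence.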

[2] = target: T2, full-length human CSNK1D (Homo sapiens, UniProt P48730); test: CSNK1D Assay (ADP-Glo, 1 μM ATP); type: biochemical; settings: Table 3, read-out: CSNK1D IC50 [mol/l] (median)
T2 construct: N-terminal Glutathion-S-Transferase (GST) and full-length human CSNK1D; purchased Life Technologies PV3665; host or cells: baculovirus infected insect cells
T2 sequence (P48730 whole entry): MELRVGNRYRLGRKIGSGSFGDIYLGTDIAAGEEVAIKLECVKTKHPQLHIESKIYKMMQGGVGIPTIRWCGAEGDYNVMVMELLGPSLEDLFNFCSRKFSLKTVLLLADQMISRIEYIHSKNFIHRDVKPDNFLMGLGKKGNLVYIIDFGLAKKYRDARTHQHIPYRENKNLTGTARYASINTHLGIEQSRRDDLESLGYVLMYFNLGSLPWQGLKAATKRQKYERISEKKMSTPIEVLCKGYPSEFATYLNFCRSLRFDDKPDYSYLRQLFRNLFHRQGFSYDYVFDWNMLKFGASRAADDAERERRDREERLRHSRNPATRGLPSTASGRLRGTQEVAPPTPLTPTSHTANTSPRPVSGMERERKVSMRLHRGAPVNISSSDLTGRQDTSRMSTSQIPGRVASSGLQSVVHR
In short: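 Enzyme is N-terminal GST-tagged full-length human CSNK1D from baculovirus-infected insect cells (typically about 0.5 ng/μL), with a biotinylated peptide substrate and 1 μM ATP. Compound pre-incubated 15 min at 22° C in HEPES pH 7.5 buffer; ADP formed is read by ADP-Glo luminescence.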

T1 sequence (P48729 whole entry): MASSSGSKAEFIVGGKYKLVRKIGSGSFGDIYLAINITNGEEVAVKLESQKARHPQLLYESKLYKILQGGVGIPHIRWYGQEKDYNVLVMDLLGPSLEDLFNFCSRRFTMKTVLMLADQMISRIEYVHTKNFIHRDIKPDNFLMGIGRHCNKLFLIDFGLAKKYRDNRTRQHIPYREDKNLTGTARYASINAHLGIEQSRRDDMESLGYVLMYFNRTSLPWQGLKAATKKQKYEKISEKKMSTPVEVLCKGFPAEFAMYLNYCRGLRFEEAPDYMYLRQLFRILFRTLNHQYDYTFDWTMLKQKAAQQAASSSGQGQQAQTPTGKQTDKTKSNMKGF

Compound | IC50 [1] [nM] | IC50 [2] [nM]
O=C(Nc1cc(-c2[nH]c3ncc(F)nc3c2-c2ccccn2)ccn1)C(CC(F)F)c1ccc(F)cc1 (single isomer, unassigned) [Example 64, (2R or S)-4,4-difluoro-2-(4-fluorophenyl)-N-{4-[2-fluoro-7-(pyridin-2-yl)-5H-pyrrolo[2,3-b]pyrazin-6-yl]pyridin-2-yl}butanamide] | 23 | 40.4
O=C(Nc1cc(-c2[nH]c3ccnnc3c2-c2ccccn2)ccn1)C(CC(F)F)c1ccc(F)cc1 (single isomer, unassigned) [Example 66, (2R or 2S)-4,4-difluoro-2-(4-fluorophenyl)-N-{4-[7-(pyridin-2-yl)-5H-pyrrolo[3,2-c]pyridazin-6-yl]pyridin-2-yl}butanamide] | 2.43 | 4.59
O=C(Nc1cc(-c2[nH]c3ccnnc3c2-c2ccccn2)ccn1)C(CC(F)F)c1ccc(F)cc1 (single isomer, unassigned) [Example 67, (2R or S)-4,4-difluoro-2-(4-fluorophenyl)-N-{4-[7-(pyridin-2-yl)-5H-pyrrolo[3,2-c]pyridazin-6-yl]pyridin-2-yl}butanamide] | 22 | 29.7
O=C(Nc1cc(-c2[nH]c3c(O[C@H]4CCOC4)ncnc3c2-c2ccccn2)ccn1)C(CC(F)F)c1ccc(F)cc1 (single isomer, unassigned) [Example 73, (2R or S)-4,4-difluoro-2-(4-fluorophenyl)-N-{4-[4-{[(3S)-oxolan-3-yl]oxy}-7-(pyridin-2-yl)-5H-pyrrolo[3,2-d]pyrimidin-6-yl]pyridin-2-yl}butanamide] | 4.16 | 4.02
O=C(Nc1cc(-c2[nH]c3c(O[C@H]4CCOC4)ncnc3c2-c2ccccn2)ccn1)C(CC(F)F)c1ccc(F)cc1 (single isomer, unassigned) [Example 74, (2R or S)-4,4-difluoro-2-(4-fluorophenyl)-N-{4-[4-{[(3S)-oxolan-3-yl]oxy}-7-(pyridin-2-yl)-5H-pyrrolo[3,2-d]pyrimidin-6-yl]pyridin-2-yl}butanamide] | 35.8 | 55.4
O=C(Nc1cc(-c2[nH]c3c(OCC(F)F)ncnc3c2-c2ccccn2)ccn1)C(CC(F)F)c1ccc(F)cc1 (single isomer, unassigned) [Example 79, (2R or S)—N-{4-[4-(2,2-difluoroethoxy)-7-(pyridin-2-yl)-5H-pyrrolo[3,2-d]pyrimidin-6-yl]pyridin-2-yl}-4,4-difluoro-2-(4-fluorophenyl)butanamide] | 3.1 | 3.27
O=C(Nc1cc(-c2[nH]c3c(OCC(F)F)ncnc3c2-c2ccccn2)ccn1)C(CC(F)F)c1ccc(F)cc1 (single isomer, unassigned) [Example 80, (2R or S)—N-{4-[4-(2,2-difluoroethoxy)-7-(pyridin-2-yl)-5H-pyrrolo[3,2-d]pyrimidin-6-yl]pyridin-2-yl}-4,4-difluoro-2-(4-fluorophenyl)butanamide] | 16.9 | 26.4
COc1cnc2c(-c3ccccn3)c(-c3ccnc(NC(=O)C(CC(F)F)c4ccc(F)cc4)c3)[nH]c2c1 (single isomer, unassigned) [Example 82, 4,4-difluoro-2-(4-fluorophenyl)-N-{4-[6-methoxy-3-(pyridin-2-yl)-1H-pyrrolo[3,2-b]pyridin-2-yl]pyridin-2-yl}butanamide] | 2.68 | 3.17
COc1cnc2c(-c3ccccn3)c(-c3ccnc(NC(=O)C(CC(F)F)c4ccc(F)cc4)c3)[nH]c2c1 (single isomer, unassigned) [Example 83, 4,4-difluoro-2-(4-fluorophenyl)-N-{4-[6-methoxy-3-(pyridin-2-yl)-1H-pyrrolo[3,2-b]pyridin-2-yl]pyridin-2-yl}butanamide] | 9.86 | 35.3
O=C(Nc1cc(-c2[nH]c3cc(Cl)cnc3c2-c2ccccn2)ccn1)C(CC(F)F)c1ccc(F)cc1 (single isomer, unassigned) [Example 88, (+)—N-{4-[6-chloro-3-(pyridin-2-yl)-1H-pyrrolo[3,2-b]pyridin-2-yl]pyridin-2-yl}-4,4-difluoro-2-(4-fluorophenyl)butanamide] | 4.72 | 7.42
